According to patent US20090253644A1, “Radiosensitizer” (TOYO SUISAN KAISHA, LTD., priority 2004, published 2009):

Tests used:
[1] = tested on: angiogenesis (tube formation); test: Assay by angiogenesis kit (KZ-1000), tube formation; assay type: cell-based
Protocol: The anti-angiogenic effect obtained by combined use of 20 μM of α-SQMG C18:0 administration and 4 Gy of ^60Co γ-ray irradiation was investigated using an angiogenesis kit (“angiogenesis kit KZ-1000” of Kurabo Industries Ltd.).
A drug named Suramin is the known substance as a drug suppressing angiogenesis, and it is known that its action is to inhibit a growth factor receptor of a vascular endothelial cell. In the present Example, Suramin was used as a positive control at 50 μM.
As described above, the “theoretical additive point of combined use” is calculated by multiplication, and the theoretical value is compared with an actually measured value.

[2] = tested on: Bovine aortic endothelial cells (BAEC); test: Colony assay on vascular endothelial cells with 60Co γ-ray irradiation; assay type: cell-based; parameters: key to actually measured SF value of combined use group / actually measured SF value of combined use: SF = colonies/seeded cells×(PE/100); PE = control colony formation rate; conditions: for SF (cell surviving fraction), administration alone / synergistic effect of combined use with radiation on suppression of proliferation of vascular endothelial cells: 10 μM; for SF (cell surviving fraction), administration alone: 24 hours, no irradiation; for synergistic effect of combined use with radiation on suppression of proliferation of vascular endothelial cells: 4 Gy and/or 6 Gy
Protocol: Bovine aortic endothelial cells (BAEC) were appropriately seeded on a petri dish, and adhesion of cells was confirmed after 2 to 3 hours. In a group of α-SQMG C18:0 administration alone and a combined use group, the cells were treated with 10 μM of α-SQMG C18:0. After 24 hours, a medium was exchanged in all test groups, and 4 Gy of ^60Co γ-ray was irradiated in a group of irradiation alone and a combined use group. After the cells were cultured in a CO2 incubator at 37° C. for 10 to 12 days, formed colonies were fixed with formalin, and stained with a crystal violet staining solution. On each plate, the number of colonies consisting of about 50 or more cells was counted, and cell surviving fraction (SF) was obtained according to the following equation.
SF (cell surviving fraction)=number of colonies/number of seeded cells×(PE/100)
Herein, PE (plating efficiency) represents a colony formation rate (%) on a plate of a control.
An experiment was performed three times, and an average of them was calculated.
The same experiment as that of Experimental Example 2-1 was performed except that a radiation dose 6 Gy was irradiated in place of 4 Gy used in Experimental Example 2-1. […]

[3] = 4 Gy 60Co γ-ray + α-SQMG C18:0 20 μM or Suramin 50 μM

Cc1ccc(C(=O)Nc2ccc(S(=O)(=O)O)c3cc(S(=O)(=O)O)cc(S(=O)(=O)O)c23)cc1NC(=O)c1cccc(NC(=O)Nc2cccc(C(=O)Nc3cc(C(=O)Nc4ccc(S(=O)(=O)O)c5cc(S(=O)(=O)O)cc(S(=O)(=O)O)c45)ccc3C)c2)c1 [Suramin, reference compound]
tube formation rate, Actually measured value, combined use [1, 3]: 0.232 | tube formation rate, Theoretical value (theoretical additive point of combined use) [1, 3]: 0.219 | tube formation rate, use alone ([1]; α-SQMG C18:0 20 μM, Suramin 50 μM, no irradiation): 0.3386

CCCCCCCCCCCCCCCCCC(=O)OCC(CO[C@H]1O[C@H](CS(=O)(=O)[O-])[C@@H](O)[C@H](O)[C@H]1O)OC(=O)CCCCCCCCCCCCCCCCC.[Na+] (stereo partly drawn) [α-SQDG C18:0, 3-O-(6-deoxy-6-sulfo-α-D-glucopyranosyl)-1,2-di-O-stearoyl-glycerol sodium salt]
actually measured SF value of combined use group ([2]; 10 μM + 4 Gy 60Co γ-ray): 0.0882 | theoretical additive point of combined use (SF) ([2]; 10 μM + 4 Gy 60Co γ-ray): 0.1765 | SF (cell surviving fraction), administration alone [2]: 0.9216

CCCCCCCCCCCCCC(=O)OCC(O)CO[C@H]1O[C@H](CS(=O)(=O)[O-])[C@@H](O)[C@H](O)[C@H]1O.[Na+] (stereo partly drawn) [α-SQMG C14:0, 3-O-(6-deoxy-6-sulfo-α-D-glucopyranosyl)-1-O-myristoyl-glycerol sodium salt]
actually measured SF value of combined use group ([2]; 10 μM + 6 Gy 60Co γ-ray): 0.0109 | theoretical additive point of combined use (SF) ([2]; 10 μM + 6 Gy 60Co γ-ray): 0.0715 | SF (cell surviving fraction), administration alone [2]: 1.0605 | synergistic effect of combined use with radiation on suppression of proliferation of vascular endothelial cells [2]: considerably great synergistic effect

CCCCCCCCCCCCCCCC(=O)OCC(O)CO[C@H]1O[C@H](CS(=O)(=O)[O-])[C@@H](O)[C@H](O)[C@H]1O.[Na+] (stereo partly drawn) [α-SQMG C16:0, 3-O-(6-deoxy-6-sulfo-α-D-glucopyranosyl)-1-O-palmitoyl-glycerol sodium salt]
actually measured SF value of combined use group ([2]; 10 μM + 6 Gy 60Co γ-ray): 0.0233 | theoretical additive point of combined use (SF) ([2]; 10 μM + 6 Gy 60Co γ-ray): 0.0644 | SF (cell surviving fraction), administration alone [2]: 0.9553 | synergistic effect of combined use with radiation on suppression of proliferation of vascular endothelial cells [2]: considerably great synergistic effect

CCCCCCCC/C=C\CCCCCCCC(=O)OCC(O)CO[C@H]1O[C@H](CS(=O)(=O)[O-])[C@@H](O)[C@H](O)[C@H]1O.[Na+] (stereo partly drawn) [α-SQMG C18:1, 3-O-(6-deoxy-6-sulfo-α-D-glucopyranosyl)-1-O-oleoyl-glycerol sodium salt]
actually measured SF value of combined use group ([2]; 10 μM + 4 Gy 60Co γ-ray): 0.0843 | theoretical additive point of combined use (SF) ([2]; 10 μM + 4 Gy 60Co γ-ray): 0.1990 | SF (cell surviving fraction), administration alone [2]: 1.0392

CCCCCCCCCCCCCCCCCC(=O)OCC(O)CO[C@H]1O[C@H](CS(=O)(=O)[O-])[C@@H](O)[C@H](O)[C@@H]1O.[Na+] (stereo partly drawn) [α-SRMG C18:0, 3-O-(6-deoxy-6-sulfo-α-D-mannopyranosyl)-1-O-stearoyl-glycerol sodium salt]
actually measured SF value of combined use group ([2]; 10 μM + 4 Gy 60Co γ-ray): 0.0784 | theoretical additive point of combined use (SF) ([2]; 10 μM + 4 Gy 60Co γ-ray): 0.1677 | SF (cell surviving fraction), administration alone [2]: 0.8758

CCCCCCCCCCCCCCCCCC(=O)OCC(CO[C@@H]1O[C@H](CS(=O)(=O)[O-])[C@@H](O)[C@H](O)[C@H]1O)OC(=O)CCCCCCCCCCCCCCCCC.[Na+] (stereo partly drawn) [β-SQDG C18:0, 3-O-(6-deoxy-6-sulfo-β-D-glucopyranosyl)-1,2-di-O-stearoyl-glycerol sodium salt]
actually measured SF value of combined use group ([2]; 10 μM + 4 Gy 60Co γ-ray): 0.0908 | theoretical additive point of combined use (SF) ([2]; 10 μM + 4 Gy 60Co γ-ray): 0.1377 | SF (cell surviving fraction), administration alone [2]: 0.7190

CCCCCCCCCCCCCCCCCC(=O)OCC(O)CO[C@@H]1O[C@H](CS(=O)(=O)[O-])[C@@H](O)[C@H](O)[C@H]1O.[Na+] (stereo partly drawn) [β-SQMG C18:0, 3-O-(6-deoxy-6-sulfo-β-D-glucopyranosyl)-1-O-stearoyl-glycerol sodium salt]
actually measured SF value of combined use group ([2]; 10 μM + 4 Gy 60Co γ-ray): 0.0922 | theoretical additive point of combined use (SF) ([2]; 10 μM + 4 Gy 60Co γ-ray): 0.1640 | SF (cell surviving fraction), administration alone [2]: 0.8562
